Where two headings read alike, the source gives them in different places.
How the values were obtained:
[1] = target: human RORγt ligand binding domain (RORγt LBD) (Homo sapiens (Human), UniProt P51449); experiment: RORγt ThermoFluor® assay (thermal shift binding); conditions: read-out: ThermoFluor® Assay, Kd
How it was run: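 His-tagged human RORγt LBD (0.065 mg/mL) with 60 μM 1,8-ANS in 100 mM Hepes pH 7.0, 10 mM NaCl, 2.5 mM GSH, 0.002% Tween-20 was heated at 1 °C/min.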

full-length human RORγt = full-length human RORγt (Homo sapiens (Human), UniProt P51449); experiment: RORγt (full-length human) reporter assay, Conditions B or C; type: cell-based; conditions: Conditions B or C; for RORγt (FL) Reporter Assay B or C, % inhibition (value marked *): marked *: footnote not given
How it was run: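 HEK293T cells transiently co-transfected with GAL4-DBD–full-length human RORγt (nt 142-1635, NM_001001523.1) plus GAL4-firefly and CMV-Renilla luciferase reporters; compounds added 4-6 h post-transfection for 16-20 h in 1.3% FBS, 0.1% DMSO. Firefly signal normalized to DMSO and saturating reference compound, then to Renilla; IC50 from concentration plots.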

[2] = read-out: RORγt (FL) Reporter Assay B or C, IC50
[3] = RORγt (FL) Reporter Assay B or C, IC50 (μM)

Sequence of full-length human RORγt (P51449 other isoform, or with tags, fused parts or gaps): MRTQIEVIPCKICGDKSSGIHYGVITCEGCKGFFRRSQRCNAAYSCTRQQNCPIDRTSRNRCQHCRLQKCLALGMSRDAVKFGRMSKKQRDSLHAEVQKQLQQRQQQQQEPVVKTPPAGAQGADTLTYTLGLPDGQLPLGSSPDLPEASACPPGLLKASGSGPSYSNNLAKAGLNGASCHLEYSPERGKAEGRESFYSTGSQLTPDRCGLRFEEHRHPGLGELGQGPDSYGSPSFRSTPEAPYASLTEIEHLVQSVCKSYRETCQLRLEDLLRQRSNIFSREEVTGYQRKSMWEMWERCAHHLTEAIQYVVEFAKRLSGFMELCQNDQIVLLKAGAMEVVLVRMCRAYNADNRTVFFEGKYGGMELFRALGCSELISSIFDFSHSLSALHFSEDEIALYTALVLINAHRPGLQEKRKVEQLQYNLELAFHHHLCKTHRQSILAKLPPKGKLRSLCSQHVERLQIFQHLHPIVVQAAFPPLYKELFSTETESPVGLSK
Sequence of human RORγt ligand binding domain (RORγt LBD) (P51449 other isoform, or with tags, fused parts or gaps): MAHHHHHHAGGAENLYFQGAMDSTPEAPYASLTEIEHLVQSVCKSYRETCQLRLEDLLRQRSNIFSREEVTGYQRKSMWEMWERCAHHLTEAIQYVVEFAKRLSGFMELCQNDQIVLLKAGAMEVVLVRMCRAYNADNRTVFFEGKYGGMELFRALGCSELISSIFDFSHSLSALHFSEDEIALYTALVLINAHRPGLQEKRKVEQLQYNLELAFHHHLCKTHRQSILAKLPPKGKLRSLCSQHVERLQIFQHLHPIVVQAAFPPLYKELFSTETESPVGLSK

| Kd [1] [nM] | RORγt (FL) Reporter Assay B or C, % inhibition (value marked *) (full-length human RORγt) | IC50 (full-length human RORγt; [2]) [µM] | Compound | IC50 (full-length human RORγt; [3]) [µM] |
| --- | --- | --- | --- | --- |
| 0.36 | 115* % | 0.012 | CCC(C)(C)Nc1cc(C(F)F)c(-c2sc(C(=O)NCC(C)(C)O)nc2C(=O)N2CC(F)(F)C[C@@H]2C)cn1 [Example 94, (S)-4-(4,4-Difluoro-2-methylpyrrolidine-1-carbonyl)-5-(4-(difluoromethyl)-6-(tert-pentylamino)pyridin-3-yl)-N-(2-hydroxy-2-methylpropyl)thiazole-2-carboxamide] | – |
| 0.15 | 109* % | 0.0095 | CCC(C)(C)Nc1cc(C(F)F)c(-c2sc(C(=O)NCC(C)(C)O)nc2C(=O)N2CCCC[C@@H]2C)cn1 [Example 95, (S)-5-(4-(Difluoromethyl)-6-(tert-pentylamino)pyridin-3-yl)-N-(2-hydroxy-2-methylpropyl)-4-(2-methylpiperidine-1-carbonyl)thiazole-2-carboxamide] | – |
| 1.2 | 119* % | 0.037 | CCC(C)(C)Nc1cc(C(F)F)c(-c2sc(C(=O)NCC(C)(C)O)nc2C(=O)N2CCC[C@@H]2C)cn1 [Example 96, (S)-5-(4-(Difluoromethyl)-6-(tert-pentylamino)pyridin-3-yl)-N-(2-hydroxy-2-methylpropyl)-4-(2-methylpyrrolidine-1-carbonyl)thiazole-2-carboxamide] | – |
| 0.39 | 108* % | 0.014 | C[C@H]1CC(F)(F)CN1C(=O)c1nc(C(=O)NCC(C)(C)O)sc1-c1cnc(NC2(C(F)(F)F)CCC2)cc1C(F)(F)F [Example 100, (S)-4-(4,4-Difluoro-2-methylpyrrolidine-1-carbonyl)-N-(2-hydroxy-2-methylpropyl)-5-(4-(trifluoromethyl)-6-((1-(trifluoromethyl)cyclobutyl)amino)pyridin-3-yl)thiazole-2-carboxamide] | – |
| 0.26 | 110* % | 0.0039 | CCC(C)(C)Nc1cc(C(F)(F)F)c(-c2sc(C(=O)NCC(C)(C)O)nc2C(=O)N2CC(F)(F)C[C@@H]2C)cn1 [Example 103, (S)-4-(4,4-Difluoro-2-methylpyrrolidine-1-carbonyl)-N-(2-hydroxy-2-methylpropyl)-5-(6-(tert-pentylamino)-4-(trifluoromethyl)pyridin-3-yl)thiazole-2-carboxamide] | – |
| 0.64 | 110* % | 0.025 | C[C@H]1CCCN1C(=O)c1nc(C(=O)NCC(C)(C)O)sc1-c1cnc(NC2(C(F)(F)F)CCC2)cc1C(F)(F)F [Example 104, (S)—N-(2-Hydroxy-2-methylpropyl)-4-(2-methylpyrrolidine-1-carbonyl)-5-(4-(trifluoromethyl)-6-((1-(trifluoromethyl)cyclobutyl)amino)pyridin-3-yl)thiazole-2-carboxamide] | – |
| 2 | 116* % | 0.015 | C[C@H]1CCCN1C(=O)c1nc(C(=O)NCC(C)(C)O)sc1-c1cnc(NC(C)(C)C2CC2)cc1C(F)F [Example 105, (S)-5-(6-((2-Cyclopropylpropan-2-yl)amino)-4-(difluoromethyl)pyridin-3-yl)-N-(2-hydroxy-2-methylpropyl)-4-(2-methylpyrrolidine-1-carbonyl)thiazole-2-carboxamide] | – |
| 0.79 | 117* % | 0.022 | C[C@H]1CC(F)(F)CN1C(=O)c1nc(C(=O)NCC(C)(C)O)sc1-c1cnc(NC(C)(C)C2CC2)cc1C(F)F [Example 106, (S)-5-(6-((2-Cyclopropylpropan-2-yl)amino)-4-(difluoromethyl)pyridin-3-yl)-4-(4,4-difluoro-2-methylpyrrolidine-1-carbonyl)-N-(2-hydroxy-2-methylpropyl)thiazole-2-carboxamide] | – |
| 0.26 | 111* % | 0.011 | C[C@H]1CC(F)(F)CN1C(=O)c1nc(C(=O)NCC(C)(C)O)sc1-c1cnc(NC(C)(C)C2CC2)cc1C(F)(F)F [Example 107, (S)-5-(6-((2-Cyclopropylpropan-2-yl)amino)-4-(trifluoromethyl)pyridin-3-yl)-4-(4,4-difluoro-2-methylpyrrolidine-1-carbonyl)-N-(2-hydroxy-2-methylpropyl)thiazole-2-carboxamide] | – |
| 0.07 | 104* % | 0.047 | CCC(C)(C)Nc1cc(C(F)(F)F)c(-c2sc(C(=O)NCC(C)(C)O)nc2C(=O)N2CCCC[C@@H]2C)cn1 [Example 108, (S)—N-(2-Hydroxy-2-methylpropyl)-4-(2-methylpiperidine-1-carbonyl)-5-(6-(tert-pentylamino)-4-(trifluoromethyl)pyridin-3-yl)thiazole-2-carboxamide] | – |
| 0.53 | 124* % | 0.018 | CCC(C)(C)Nc1cc(C(F)(F)F)c(-c2sc(C(=O)NCC(C)(C)O)nc2C(=O)N2CCC[C@@H]2C)cn1 [Example 109, (S)—N-(2-Hydroxy-2-methylpropyl)-4-(2-methylpyrrolidine-1-carbonyl)-5-(6-(tert-pentylamino)-4-(trifluoromethyl)pyridin-3-yl)thiazole-2-carboxamide] | – |
| 2.2 | 112* % | 0.026 | C[C@H](Nc1cc(C(F)(F)F)c(-c2sc(C(=O)NCC(C)(C)O)nc2C(=O)N2CC(F)(F)C[C@@H]2C)cn1)C(F)(F)F [Example 110, 4-((S)-4,4-Difluoro-2-methylpyrrolidine-1-carbonyl)-N-(2-hydroxy-2-methylpropyl)-5-(4-(trifluoromethyl)-6-(((S)-1,1,1-trifluoropropan-2-yl)amino)pyridin-3-yl)thiazole-2-carboxamide] | – |
| 0.2 | 110* % | 0.013 | CC[C@H](Nc1cc(C(F)(F)F)c(-c2sc(C(=O)NCC(C)(C)O)nc2C(=O)N2CCCC[C@@H]2C)cn1)C(F)(F)F [Example 112, N-(2-Hydroxy-2-methylpropyl)-4-((S)-2-methylpiperidine-1-carbonyl)-5-(6-(((S)-1,1,1-trifluorobutan-2-yl)amino)-4-(trifluoromethyl)pyridin-3-yl)thiazole-2-carboxamide] | – |

| Compound | Kd [1] [nM] | RORγt (FL) Reporter Assay B or C, % inhibition (value marked *) (full-length human RORγt) | IC50 (full-length human RORγt; [2]) [µM] | IC50 (full-length human RORγt; [3]) [µM] |
| --- | --- | --- | --- | --- |
| CCC(C)(C)Nc1cc(C(F)F)c(-c2sc(C(=O)NCC(C)(C)O)nc2C(=O)N2C3CCC2CC3)cn1 [Example 93, 4-((1s,4s)-7-Azabicyclo[2.2.1]heptane-7-carbonyl)-5-(4-(difluoromethyl)-6-(tert-pentylamino)pyridin-3-yl)-N-(2-hydroxy-2-methylpropyl)thiazole-2-carboxamide] | 1.1 | 121* % | 0.01 | – |
| CC(C)(O)CNC(=O)c1nc(C(=O)N2C3CCC2CC3)c(-c2cnc(NC(C)(C)C3CC3)cc2C(F)F)s1 [Example 97, 4-((1s,4s)-7-Azabicyclo[2.2.1]heptane-7-carbonyl)-5-(6-((2-cyclopropylpropan-2-yl)amino)-4-(difluoromethyl)pyridin-3-yl)-N-(2-hydroxy-2-methylpropyl)thiazole-2-carboxamide] | 1.3 | 111* % | 0.0036 | – |
| CCC(C)(C)Nc1cc(C(F)(F)F)c(-c2sc(C(=O)NCC(C)(C)O)nc2C(=O)N2C3CCC2CC3)cn1 [Example 98, 4-((1s,4s)-7-Azabicyclo[2.2.1]heptane-7-carbonyl)-N-(2-hydroxy-2-methylpropyl)-5-(6-(tert-pentylamino)-4-(trifluoromethyl)pyridin-3-yl)thiazole-2-carboxamide] | 0.41 | 110* % | – | 0.0096 |
| CC(C)(O)CNC(=O)c1nc(C(=O)N2C3CCC2CC3)c(-c2cnc(NC3(C(F)(F)F)CCC3)cc2C(F)(F)F)s1 [Example 99, 4-((1s,4s)-7-Azabicyclo[2.2.1]heptane-7-carbonyl)-N-(2-hydroxy-2-methylpropyl)-5-(4-(trifluoromethyl)-6-((1-(trifluoromethyl)cyclobutyl)amino)pyridin-3-yl)thiazole-2-carboxamide] | 0.58 | 108* % | 0.011 | – |
| CC[C@H](Nc1cc(C(F)(F)F)c(-c2sc(C(=O)NCC(C)(C)O)nc2C(=O)N2C3CCC2CC3)cn1)C(F)(F)F [Example 101, 4-((1s,4s)-7-Azabicyclo[2.2.1]heptane-7-carbonyl)-N-(2-hydroxy-2-methylpropyl)-5-(6-(((S)-1,1,1-trifluorobutan-2-yl)amino)-4-(trifluoromethyl)pyridin-3-yl)thiazole-2-carboxamide] | 3.2 | 107* % | – | 0.019 |
| CC[C@H](Nc1cc(C(F)(F)F)c(-c2sc(C(=O)NCC(C)(C)O)nc2C(=O)N2CC(F)(F)C[C@@H]2C)cn1)C(F)(F)F [Example 102, 4-((S)-4,4-Difluoro-2-methylpyrrolidine-1-carbonyl)-N-(2-hydroxy-2-methylpropyl)-5-(6-(((S)-1,1,1-trifluorobutan-2-yl)amino)-4-(trifluoromethyl)pyridin-3-yl)thiazole-2-carboxamide] | 0.99 | 116* % | 0.017 | – |

Reference: US10975068B2, “6-aminopyridin-3-yl thiazoles as modulators of RORγT” (Janssen Pharmaceutica NV, priority 2016, dated 2021)
